Earlier results on 1 compound are cited in patent publication US5612056A, “Transdermal formulations” (priority 1991, dated 1997).

The conditions of data set [1]: guinea pig, in vivo.
The test system of the next data set is blood cholinesterase. Conditions: human, in vivo, iv.

Turning to `CNC(=O)Oc1ccc2c(c1)[C@]1(C)CCN(C)[C@@H]1N2C` [physostigmine], in data set [1], the plasma half life is 40 to 50 min. Besides, the blood cholinesterase inhibition result in the data set with blood cholinesterase is given as “approximately 30%”.
